Data from ChEMBL document CHEMBL2062376, “Novel oxazolo[4,5-g]quinazolin-2(1H)-ones: dual inhibitors of EGFR and Src protein tyrosine kinases” (Eur J Med Chem, 2012).
Blank lines part the entries; values can stand above or below the molecule they belong to. Activity calls are given as the source filed them. The calls are words filed in the database; no cut-off is given here.

Assays:
[1] = biological target: T1, Epidermal growth factor receptor (Homo sapiens, UniProt P00533); test: Inhibition of EGFR at >100 uM
[2] = biological target: Proto-oncogene tyrosine-protein kinase Src (Homo sapiens, UniProt P12931); test: Inhibition of SRC
[3] = biological target: T1, Epidermal growth factor receptor
KB = test: Antiproliferative activity against human KB cells expressing EGFR and SRC by MTT assay; assay type: functional, cell-based
A498 = test: Antiproliferative activity against human A498 cells expressing EGFR and SRC by MTT assay; assay type: functional, cell-based

T1 sequence (P00533 whole entry): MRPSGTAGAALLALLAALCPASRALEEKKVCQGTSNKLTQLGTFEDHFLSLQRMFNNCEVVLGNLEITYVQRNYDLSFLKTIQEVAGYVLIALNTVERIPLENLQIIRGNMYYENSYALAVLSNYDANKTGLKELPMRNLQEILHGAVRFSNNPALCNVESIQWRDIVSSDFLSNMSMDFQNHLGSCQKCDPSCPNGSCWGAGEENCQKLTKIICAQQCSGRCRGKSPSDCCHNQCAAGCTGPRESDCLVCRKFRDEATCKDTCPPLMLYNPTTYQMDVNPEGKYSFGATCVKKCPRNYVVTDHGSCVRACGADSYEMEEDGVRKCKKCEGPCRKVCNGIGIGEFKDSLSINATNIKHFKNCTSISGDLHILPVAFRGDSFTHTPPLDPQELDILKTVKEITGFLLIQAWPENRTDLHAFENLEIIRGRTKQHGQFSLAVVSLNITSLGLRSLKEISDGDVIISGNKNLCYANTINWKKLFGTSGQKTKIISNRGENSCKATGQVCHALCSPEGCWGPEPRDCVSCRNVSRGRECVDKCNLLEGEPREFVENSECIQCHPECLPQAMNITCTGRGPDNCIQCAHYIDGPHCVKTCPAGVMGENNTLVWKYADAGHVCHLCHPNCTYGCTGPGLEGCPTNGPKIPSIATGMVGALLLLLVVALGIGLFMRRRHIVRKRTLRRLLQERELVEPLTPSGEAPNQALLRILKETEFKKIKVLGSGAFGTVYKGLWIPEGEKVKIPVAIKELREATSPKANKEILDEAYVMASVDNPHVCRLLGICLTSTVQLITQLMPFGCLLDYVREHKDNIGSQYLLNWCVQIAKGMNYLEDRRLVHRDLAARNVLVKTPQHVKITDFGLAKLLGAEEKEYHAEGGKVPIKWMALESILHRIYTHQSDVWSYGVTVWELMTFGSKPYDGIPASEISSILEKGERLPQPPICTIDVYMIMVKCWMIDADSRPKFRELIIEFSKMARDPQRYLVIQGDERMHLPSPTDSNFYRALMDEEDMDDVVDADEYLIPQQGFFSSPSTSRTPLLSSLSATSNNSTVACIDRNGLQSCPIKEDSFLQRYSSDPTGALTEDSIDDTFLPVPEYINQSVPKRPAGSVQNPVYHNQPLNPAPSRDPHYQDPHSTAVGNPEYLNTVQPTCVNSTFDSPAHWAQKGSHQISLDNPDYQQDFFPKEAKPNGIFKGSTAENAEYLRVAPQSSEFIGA
Proto-oncogene tyrosine-protein kinase Src, sequence (P12931 2-536 limits assumed): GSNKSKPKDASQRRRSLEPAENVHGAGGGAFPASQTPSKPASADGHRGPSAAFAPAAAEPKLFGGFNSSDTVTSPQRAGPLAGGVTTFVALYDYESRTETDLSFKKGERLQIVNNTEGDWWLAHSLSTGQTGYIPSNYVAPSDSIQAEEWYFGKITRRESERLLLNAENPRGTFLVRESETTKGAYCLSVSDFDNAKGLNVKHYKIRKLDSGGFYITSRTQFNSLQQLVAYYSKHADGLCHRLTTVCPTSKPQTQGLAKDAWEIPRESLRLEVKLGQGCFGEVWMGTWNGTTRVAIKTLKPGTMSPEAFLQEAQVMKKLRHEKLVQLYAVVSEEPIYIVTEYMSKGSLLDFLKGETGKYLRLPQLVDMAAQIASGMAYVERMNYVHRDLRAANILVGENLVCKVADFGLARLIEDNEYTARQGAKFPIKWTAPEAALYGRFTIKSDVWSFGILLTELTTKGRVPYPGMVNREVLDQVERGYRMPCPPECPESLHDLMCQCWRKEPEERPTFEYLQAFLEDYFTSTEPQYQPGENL

- inhibition [1]: inactive
Compound: Cc1ccccc1Nc1ncnc2cc3oc(=O)n(CCCN4CCOCC4)c3cc12

- IC50 [2]: 7.5 µM
- IC50 [3]: 0.067 µM
Compound: Cc1ccc(Nc2ncnc3cc4oc(=O)n(CCCN5CCOCC5)c4cc23)cc1

- IC50 [3]: 75 µM
Compound: Cc1cc(C)cc(Nc2ncnc3cc4oc(=O)n(CCCN5CCOCC5)c4cc23)c1

- IC50 [3]: 7.2 µM
Compound: CN(c1ccccc1)c1ncnc2cc3oc(=O)n(CCCN4CCOCC4)c3cc12

- IC50 [3]: 0.38 µM
Compound: COc1ccc(Nc2ncnc3cc4oc(=O)n(CCCN5CCOCC5)c4cc23)cc1

- IC50 [3]: 7.8 µM
Compound: Cc1c(OCC(F)(F)F)ccnc1COc1ccc(Nc2ncnc3cc4oc(=O)n(CCCN5CCOCC5)c4cc23)cc1

- IC50 (KB): 8.1 µM
- IC50 [3]: 0.23 µM
Compound: CCOC(=O)c1ccc(O)c(Nc2ncnc3cc4oc(=O)n(CCCN5CCOCC5)c4cc23)c1
- IC50 (A498): 15.7 µM

- inhibition [1]: inactive
Compound: O=C(OCc1ccc(Cl)cc1)c1ccc(Nc2ncnc3cc4oc(=O)n(CCCN5CCOCC5)c4cc23)cc1

- IC50 [2]: 66 µM
- inhibition [1]: inactive
Compound: O=c1oc2cc3ncnc(Nc4ccc(O)cc4)c3cc2n1CCCN1CCOCC1

- IC50 (KB): 0.82 µM
- IC50 [3]: 0.061 µM
Compound: O=c1oc2cc3ncnc(Nc4ccc(OCc5ccc(Cl)cc5)c(Cl)c4)c3cc2n1CCCN1CCOCC1
- IC50 (A498): 3 µM

- IC50 [3]: 4.5 µM
Compound: C[C@@H](Nc1ncnc2cc3oc(=O)n(CCCN4CCOCC4)c3cc12)c1ccccc1

- IC50 (KB): 37.1 µM
- IC50 [3]: 0.99 µM
Compound: O=c1oc2cc3ncnc(Nc4ccc(OCc5ccc(Cl)cc5)cc4)c3cc2n1CCCN1CCOCC1
- IC50 (A498): 7.4 µM

- inhibition [1]: inactive
Compound: COc1ccc(Nc2ncnc3cc4oc(=O)n(CCCN5CCOCC5)c4cc23)cc1OC

- inhibition [1]: inactive
Compound: O=c1oc2cc3ncnc(N[C@H]4CC[C@H](O)CC4)c3cc2n1CCCN1CCOCC1

- IC50 [3]: 1.7 µM
Compound: O=c1oc2cc3ncnc(Nc4ccc(OCc5ccccn5)cc4)c3cc2n1CCCN1CCOCC1

- IC50 (KB): 6.5 µM
- IC50 [3]: 0.078 µM
Compound: O=c1oc2cc3ncnc(Nc4ccc(F)c(Cl)c4)c3cc2n1CCCN1CCOCC1
- IC50 (A498): 32 µM

- IC50 [3]: 79 µM
Compound: CC(C)(C)c1ccc(Nc2ncnc3cc4oc(=O)n(CCCN5CCOCC5)c4cc23)cc1

- IC50 [3]: 6.8 µM
Compound: CC(=O)c1cccc(Nc2ncnc3cc4oc(=O)n(CCCN5CCOCC5)c4cc23)c1

- IC50 (KB): 37.6 µM
- IC50 [3]: 0.14 µM
Compound: O=c1oc2cc3ncnc(Nc4ccc(OCc5ccccc5)cc4)c3cc2n1CCCN1CCOCC1
- IC50 (A498): 14.8 µM

- IC50 [3]: 0.38 µM
Compound: C#Cc1cccc(Nc2ncnc3cc4oc(=O)n(CCCN5CCOCC5)c4cc23)c1

- inhibition [1]: inactive
Compound: CN1CCN(c2ncnc3cc4oc(=O)n(CCCN5CCOCC5)c4cc23)CC1

- IC50 [2]: 3.1 µM
- IC50 (KB): 6 µM
- IC50 [3]: 5.8 µM
Compound: CCOC(=O)c1ccc(Nc2ncnc3cc4oc(=O)n(CCCN5CCOCC5)c4cc23)cc1
- IC50 (A498): 8.8 µM

- IC50 [3]: 30 µM
Compound: O=c1oc2cc3ncnc(Nc4ccccc4O)c3cc2n1CCCN1CCOCC1

- IC50 (KB): 18.5 µM
- IC50 [3]: 0.12 µM
Compound: O=c1oc2cc3ncnc(Nc4ccc5[nH]ncc5c4)c3cc2n1CCCN1CCOCC1
- IC50 (A498): 18.7 µM

- IC50 (KB): 16 µM
- IC50 [3]: 0.099 µM
Compound: Cc1c(OCC(F)(F)F)ccnc1COc1cccc(Nc2ncnc3cc4oc(=O)n(CCCN5CCOCC5)c4cc23)c1
- IC50 (A498): 35.3 µM

- IC50 [3]: 3 µM
Compound: CC(C)Oc1cccc(Nc2ncnc3cc4oc(=O)n(CCCN5CCOCC5)c4cc23)c1

- inhibition [1]: inactive
Compound: O=c1oc2cc3ncnc(Nc4ccc(Cl)cc4)c3cc2n1CCCN1CCOCC1

- inhibition [1]: inactive
Compound: CC(=O)Nc1ccc(Nc2ncnc3cc4oc(=O)n(CCCN5CCOCC5)c4cc23)cc1

- IC50 [2]: 0.073 µM
Compound: CN(C)S(=O)(=O)c1ccc2c(c1)/C(=C/c1cc3c([nH]1)CCCC3)C(=O)N2

- inhibition [1]: inactive
Compound: NS(=O)(=O)c1ccc(Nc2ncnc3cc4oc(=O)n(CCCN5CCOCC5)c4cc23)cc1

- IC50 [3]: 65 µM
Compound: O=c1oc2cc3ncnc(NCc4ccccc4)c3cc2n1CCCN1CCOCC1

- IC50 [3]: 3.7 µM
Compound: C[C@H](Nc1ncnc2cc3oc(=O)n(CCCN4CCOCC4)c3cc12)c1ccccc1

- IC50 [3]: 0.57 µM
Compound: O=c1oc2cc3ncnc(Nc4ccc(F)c(F)c4)c3cc2n1CCCN1CCOCC1
